Patent publication US8652823B2, “Strain for butanol production with increased membrane unsaturated trans fatty acids” (Butamax(TM) Advanced Biofuels LLC, priority 2008, dated 2014)

Assays:
Type in all cases: cell-based, Lactobacillus plantarum
L. plantarum PN0512 [1] = test: Growth yield of fatty acid fed cultures in the presence of isobutanol; details: for OD600 (growth yield): 20 hours at 30° C., average of two experiments
Procedure: (§1) Growth medium was semi-synthetic LAB medium, pH7, with bovine serum albumin (BSA) used as a carrier. […] The composition of this medium is as follows:
(§2) All medium ingredients were purchased from Sigma Chemical Company (St. Louis, Mo.) except yeast extract and casamino acids, which were purchased from Beckton, Dickinson and Co (Sparks, Md.). Free fatty acids, added to a final concentration of […] from 1% ethanol stock solutions (stored at −20° C.), were purchased from Sigma Chemical Company (St Louis, Mo.), Isobutanol, 1-butanol, 2-butanol, and methyl ethyl ketone (MEK) were purchased from Sigma Chemical Company (St. Louis, Mo.).
(§3) A working stock of Lactobacillus plantarum PN0512 (ATCC # PTA-7727) was prepared to use as a consistent source of inoculum. Cultures were grown in MRS medium (Acumedia Manufacturers, Inc. Lansing, Mich.) at 30° C. overnight. Glycerol was added to a final concentration of 12.5% and aliquots were frozen at −80° C. One aliquot was thawed at room temperature and used to inoculate all tubes in an experiment and then discarded.
(§4) For growth yield experiments, 5 ml of medium with fatty acids and several concentrations of 1-butanol, isobutanol, 2-butanol, or MEK in 15 ml screw cap tubes was inoculated with 12.5 μl of the working stock giving an initial OD600 of 0.012. The caps were tightly sealed and incubated at 30° C. on a roller drum for 20 to 26 hours, at which time 1.0 ml was removed and OD600 was measured with a blank of medium amended with the fatty acid. All solvent concentrations are reported as % (w/v).
Growth in the presence of these fatty acids and various concentrations of isobutanol was tested. Cultures were prepared as described in General Methods.

L. plantarum PN0512 [2] = test: Growth yield of fatty acid fed cultures in the presence of 1-butanol; details: for OD600 (growth yield): overnight growth at 30° C., average of biological replicates
Procedure: as §1, §2, §3, §4
(§5) Cultures were prepared as described in General Methods.

L. plantarum PN0512 [3] = test: Growth yield of fatty acid fed cultures in the presence of 2-butanol; details: for OD600 (growth yield): overnight growth at 30° C., average of biological replicates
Procedure: as §1, §2, §3, §4, §5

L. plantarum PN0512 [4] = test: Growth yield of fatty acid fed cultures in the presence of MEK; details: for OD600 (growth yield): overnight growth at 30° C., average of biological replicates
Procedure: as §1, §2, §3, §4, §5

Compound | OD600 (growth yield) (L. plantarum PN0512 [1]; isobutanol 1.5 % w/v) | OD600 (growth yield) (L. plantarum PN0512 [1]; isobutanol 2.0 % w/v) | OD600 (growth yield) (L. plantarum PN0512 [1]; isobutanol 2.5 % w/v) | OD600 (growth yield) (L. plantarum PN0512 [1]; isobutanol 2.7 % w/v) | OD600 (growth yield) (L. plantarum PN0512 [1]; isobutanol 2.9 % w/v) | OD600 (growth yield) (L. plantarum PN0512 [1]; isobutanol 3.1 % w/v) | OD600 (growth yield) (L. plantarum PN0512 [1]; isobutanol 3.3 % w/v) | OD600 (growth yield) (L. plantarum PN0512 [1]; isobutanol 3.5 % w/v) | OD600 (growth yield) (L. plantarum PN0512 [2]; 1-butanol 0 % (w/v)) | OD600 (growth yield) (L. plantarum PN0512 [2]; 1-butanol 2.0 % (w/v)) | OD600 (growth yield) (L. plantarum PN0512 [2]; 1-butanol 2.25 % (w/v)) | OD600 (growth yield) (L. plantarum PN0512 [2]; 1-butanol 2.5 % (w/v)) | OD600 (growth yield) (L. plantarum PN0512 [2]; 1-butanol 2.75 % (w/v)) | OD600 (growth yield) (L. plantarum PN0512 [2]; 1-butanol 3.0 % (w/v)) | OD600 (growth yield) (L. plantarum PN0512 [3]; 2-butanol 0 % w/v) | OD600 (growth yield) (L. plantarum PN0512 [3]; 2-butanol 2.0 % w/v) | OD600 (growth yield) (L. plantarum PN0512 [3]; 2-butanol 4.0 % w/v) | OD600 (growth yield) (L. plantarum PN0512 [3]; 2-butanol 4.5 % w/v) | OD600 (growth yield) (L. plantarum PN0512 [3]; 2-butanol 4.7 % w/v) | OD600 (growth yield) (L. plantarum PN0512 [3]; 2-butanol 4.9 % w/v) | further results
CCCCCCCC/C=C/CCCCCCCC(=O)O [elaidic acid, (E)-octadec-9-enoic acid] | 1.145 | 1.100 | 0.922 | 0.606 | 0.281 | 0.122 | 0.072 | 0.042 | 1.508 | 1.039 | 1.003 | 0.559 | 0.095 | 0.009 | 1.490 | 1.430 | 1.030 | 0.400 | 0.186 | 0.088 | growth yield higher than in the oleic acid fed cultures (L. plantarum PN0512 [1]; 2.5% w/v isobutanol): 78%; growth yield compared with the oleic acid fed cultures (L. plantarum PN0512 [1]; concentrations greater than 2% isobutanol): greater; growth yield higher than in the oleic acid fed cultures (L. plantarum PN0512 [2]; 2.5% w/v 1-butanol): greater than 3 fold; growth yield compared with the oleic acid fed cultures (L. plantarum PN0512 [2]; concentrations greater than 2% 1-butanol): greater; tolerance to 2-butanol when compared to the oleic acid fed culture (L. plantarum PN0512 [3]): improved tolerance; OD600 (growth yield) (L. plantarum PN0512 [3]; 2-butanol 5.1 % w/v): 0.038; OD600 (growth yield) (L. plantarum PN0512 [3]; 2-butanol 5.3 % w/v): 0.030; OD600 (growth yield) (L. plantarum PN0512 [3]; 2-butanol 5.5 % w/v): 0.008; growth yield higher than in the oleic acid fed cultures (L. plantarum PN0512 [3]; 4.5% w/v 2-butanol): 4 fold; tolerance to MEK as compared with oleic acid fed cultures (L. plantarum PN0512 [4]): did not have improved tolerance to MEK; OD600 (growth yield) (L. plantarum PN0512 [4]; MEK 0 % (w/v)): 1.548; OD600 (growth yield) (L. plantarum PN0512 [4]; MEK 3.5 % (w/v)): 1.0041; OD600 (growth yield) (L. plantarum PN0512 [4]; MEK 4.0 % (w/v)): 0.9105; OD600 (growth yield) (L. plantarum PN0512 [4]; MEK 4.5 % (w/v)): 0.8871; OD600 (growth yield) (L. plantarum PN0512 [4]; MEK 5.0 % (w/v)): 0.3235; OD600 (growth yield) (L. plantarum PN0512 [4]; MEK 5.5 % (w/v)): 0.1477
CCCCCCCC/C=C\CCCCCCCC(=O)O [oleic acid, reference compound] | 1.110 | 1.130 | 0.519 | 0.387 | 0.095 | 0.063 | 0.035 | 0.015 | 1.509 | 1.026 | 0.611 | 0.161 | 0.061 | 0.003 | 1.480 | 1.410 | 0.431 | 0.100 | 0.067 | 0.040 | OD600 (growth yield) (L. plantarum PN0512 [3]; 2-butanol 3.0 % w/v): 1.130; OD600 (growth yield) (L. plantarum PN0512 [3]; 2-butanol 5.1 % w/v): 0.030; OD600 (growth yield) (L. plantarum PN0512 [3]; 2-butanol 5.3 % w/v): 0.004; OD600 (growth yield) (L. plantarum PN0512 [3]; 2-butanol 5.5 % w/v): 0.004; OD600 (growth yield) (L. plantarum PN0512 [4]; MEK 0 % (w/v)): 1.539; OD600 (growth yield) (L. plantarum PN0512 [4]; MEK 3.5 % (w/v)): 1.002; OD600 (growth yield) (L. plantarum PN0512 [4]; MEK 4.0 % (w/v)): 0.9446; OD600 (growth yield) (L. plantarum PN0512 [4]; MEK 4.5 % (w/v)): 0.942; OD600 (growth yield) (L. plantarum PN0512 [4]; MEK 5.0 % (w/v)): 0.6828; OD600 (growth yield) (L. plantarum PN0512 [4]; MEK 5.5 % (w/v)): 0.5004
